Experimental data reported in patent publication US9884063B2, “Amido-substituted azole compounds” (Bayer Pharma Aktiengesellschaft, priority 2014, dated 2018).
pIC50: −log10 of the molar value.

Key:
TNKS1 = molecular target: T1, TNKS1 (Homo sapiens, UniProt O95271); assay: Modified TNKS1 Assay 3 (BPS kit #80573, biotin-NAD+, 96 well); assay type: biochemical; details: human TNKS1, BPS kit #80573, 96 well
T1 sequence (O95271 1-1327): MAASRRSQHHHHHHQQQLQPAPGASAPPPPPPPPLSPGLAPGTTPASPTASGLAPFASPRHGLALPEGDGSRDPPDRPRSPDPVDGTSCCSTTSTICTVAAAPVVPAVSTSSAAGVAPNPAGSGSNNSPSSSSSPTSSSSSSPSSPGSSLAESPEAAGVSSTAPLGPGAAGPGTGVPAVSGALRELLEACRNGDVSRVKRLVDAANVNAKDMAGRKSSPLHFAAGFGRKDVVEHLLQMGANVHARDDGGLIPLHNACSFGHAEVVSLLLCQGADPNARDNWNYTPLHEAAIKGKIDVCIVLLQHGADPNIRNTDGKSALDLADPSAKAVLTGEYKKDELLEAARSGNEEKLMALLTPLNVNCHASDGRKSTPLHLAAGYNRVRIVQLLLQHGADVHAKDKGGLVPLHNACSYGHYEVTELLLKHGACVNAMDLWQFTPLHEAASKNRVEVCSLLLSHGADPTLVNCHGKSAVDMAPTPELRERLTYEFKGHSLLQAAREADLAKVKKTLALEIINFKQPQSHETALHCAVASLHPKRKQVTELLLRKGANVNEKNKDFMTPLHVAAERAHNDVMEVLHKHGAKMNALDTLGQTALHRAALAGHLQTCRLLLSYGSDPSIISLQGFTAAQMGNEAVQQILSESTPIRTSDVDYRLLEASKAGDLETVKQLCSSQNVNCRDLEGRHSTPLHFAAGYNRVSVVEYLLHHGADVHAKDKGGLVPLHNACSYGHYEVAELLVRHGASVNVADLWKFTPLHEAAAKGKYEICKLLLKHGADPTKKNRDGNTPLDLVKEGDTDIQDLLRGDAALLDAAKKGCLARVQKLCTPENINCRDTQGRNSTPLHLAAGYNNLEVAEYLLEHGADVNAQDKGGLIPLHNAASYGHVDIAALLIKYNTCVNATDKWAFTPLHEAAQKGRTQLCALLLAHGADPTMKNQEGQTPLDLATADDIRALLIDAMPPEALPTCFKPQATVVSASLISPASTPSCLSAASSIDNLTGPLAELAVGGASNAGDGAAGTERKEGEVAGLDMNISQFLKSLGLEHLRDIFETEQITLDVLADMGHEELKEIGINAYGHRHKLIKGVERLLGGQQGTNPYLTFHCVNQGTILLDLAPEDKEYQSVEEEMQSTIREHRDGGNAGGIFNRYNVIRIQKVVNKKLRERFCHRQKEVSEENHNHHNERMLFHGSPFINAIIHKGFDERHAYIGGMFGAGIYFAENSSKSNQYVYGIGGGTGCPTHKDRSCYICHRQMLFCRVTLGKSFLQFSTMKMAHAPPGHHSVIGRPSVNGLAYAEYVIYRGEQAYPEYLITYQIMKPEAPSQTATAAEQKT
Summary of the method: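 Chemiluminescent assay of TNKS1-catalysed ribosylation of a protein substrate with biotin-labelled NAD+, detected via streptavidin-HRP; run per kit protocol. Inhibition lowers the signal, and IC50 is the compound concentration halving the normalised readout.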

[1] = system: HEK293 FOP control reporter cell line; assay: HEK293 FOP Assay (FOP control vector luciferase reporter); assay type: cell-based; details: Homo sapiens; HEK293 FOP control reporter cell line, 16 hours incubation, compound dilution series 50 μM to 15 nM
Summary of the method: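 Compound series 50 μM to 15 nM, 3.16-fold steps, were diluted in CAFTY buffer (pH 7.4, 2 mM Ca2+, 0.01% BSA) and tested alongside the TOP reporter line. Human Wnt-3a was added at 2500–5 ng/ml in two-fold steps. The control HEK293 line stably holds an FOP vector whose TCF elements are randomized and non-functional.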

| pIC50 (TNKS1) | Compound | pIC50 [1] |
| --- | --- | --- |
| 6.42 | CNC(=O)c1nc[nH]c1C(=O)Nc1ccc(NC(=O)c2cc(F)c(F)cc2Cl)cc1 [Example 242, N^5-{4-[(2-chloro-4,5-difluorobenzoyl)amino]phenyl}-N^4-methyl-1H-imidazole-4,5-dicarboxamide] |  |
| 7.40 | O=C(Nc1ccc(NC(=O)c2nc[nH]c2C(=O)NCCN2CCCC(F)C2)cc1)c1ccc(F)cc1Cl (centres unmarked) [Example 226, N^4-{4-[(2-chloro-4-fluorobenzoyl)amino]phenyl}-N^5-[2-(3-fluoropiperidin-1-yl)ethyl]-1H-imidazole-4,5-dicarboxamide] |  |
|  | CC(C)(CNC(=O)c1[nH]cnc1C(=O)Nc1ccc(NC(=O)c2ccccc2Cl)cc1)N1CCCCC1 [Example 165, N^4-{4-[(2-chlorobenzoyl)amino]phenyl}-N^5-[2-methyl-2-(piperidin-1-yl)propyl]-1H-imidazole-4,5-dicarboxamide] | 4.51 |
| 7.70 | CNC(=O)c1nc[nH]c1C(=O)Nc1ccc(NC(=O)c2cc(OC)c(OC)cc2Cl)cc1 [Example 240, N^5-{4-[(2-chloro-4,5-dimethoxybenzoyl)amino]phenyl}-N^4-methyl-1H-imidazole-4,5-dicarboxamide] |  |
|  | CC(C)(CNC(=O)c1[nH]cnc1C(=O)Nc1ccc(NC(=O)c2ccc(F)cc2)cc1)N1CCCCC1 [Example 209, N^4-{4-[(4-fluorobenzoyl)amino]phenyl}-N^5-[2-methyl-2-(piperidin-1-yl)propyl]-1H-imidazole-4,5-dicarboxamide] | 4.66 |
|  | CC(C)CNC(=O)c1[nH]cnc1C(=O)Nc1ccc(NC(=O)c2ccc(F)cc2Cl)cc1 [Example 147, N^4-{4-[(2-chloro-4-fluorobenzoyl)amino]phenyl}-N^5-isobutyl-1H-imidazole-4,5-dicarboxamide] | 5.22 |
| < 6.30 | NC(=O)c1nc[nH]c1C(=O)Nc1ccc(NC(=O)c2ccc(F)cc2Cl)cc1 [Example 121] |  |
|  | CNC(=O)c1nc[nH]c1C(=O)Nc1ccc(NC(=O)c2cc(OCCN3CCCCC3)ccc2Cl)cc1 [Example 125, N^5-[4-({2-chloro-5-[2-(piperidin-1-yl)ethoxy]benzoyl}amino)phenyl]-N^4-methyl-1H-imidazole-4,5-dicarboxamide] | 4.82 |
| 8.52 | O=C(Nc1ccc(NC(=O)c2nc[nH]c2C(=O)NCCN2CCCCC2)cc1)c1ccc(F)cc1Br [Example 216, N^4-{4-[(2-bromo-4-fluorobenzoyl)amino]phenyl}-N^5-[2-(piperidin-1-yl)ethyl]-1H-imidazole-4,5-dicarboxamide] | 4.96 |
|  | O=C(Nc1ccc(NC(=O)c2nc[nH]c2C(=O)NCCCCN2CCCCC2)cc1)c1ccccc1Cl [Example 189, N^4-{4-[(2-chlorobenzoyl)amino]phenyl}-N^5-[4-(piperidin-1-yl)butyl]-1H-imidazole-4,5-dicarboxamide] | 4.55 |
| 6.82 | CNC(=O)c1nc[nH]c1C(=O)Nc1ccc(NC(=O)c2ccc(C)cc2Cl)cc1 [Example 244, N^5-{4-[(2-chloro-4-methylbenzoyl)amino]phenyl}-N^4-methyl-1H-imidazole-4,5-dicarboxamide] |  |
|  | O=C(NCCN1CCCCC1)c1nc[nH]c1C(=O)Nc1ccc(NC(=O)c2c(F)cc(F)cc2Cl)cc1 [Example 119, N^5-{4-[(2-chloro-4,6-difluorobenzoyl)amino]phenyl}-N^4-[2-(piperidin-1-yl)ethyl]-1H-imidazole-4,5-dicarboxamide] | 4.70 |
| 7.40 | CC1CCCN(CCNC(=O)c2[nH]cnc2C(=O)Nc2ccc(NC(=O)c3ccc(F)cc3Cl)cc2)C1 (centres unmarked) [Example 208, N^4-{4-[(2-chloro-4-fluorobenzoyl)amino]phenyl}-N^5-[2-(3-methylpiperidin-1-yl)ethyl]-1H-imidazole-4,5-dicarboxamide] | 4.64 |
|  | O=C(Nc1ccc(NC(=O)c2ocnc2C(=O)NCCN2CCC(F)(F)CC2)cc1)c1ccc(F)cc1Cl [Example 218, N^5-{4-[(2-chloro-4-fluorobenzoyl)amino]phenyl}-N^4-[2-(4,4-difluoropiperidin-1-yl)ethyl]-1,3-oxazole-4,5-dicarboxamide] | 4.50 |
|  | CC(C)(CN1CCOCC1)NC(=O)c1[nH]cnc1C(=O)Nc1ccc(NC(=O)c2ccc(F)cc2)cc1 [Example 180, N^4-{4-[(4-fluorobenzoyl)amino]phenyl}-N^5-[2-methyl-1-(morpholin-4-yl)propan-2-yl]-1H-imidazole-4,5-dicarboxamide] | 4.43 |
|  | CC(C)(CN1CCCCC1)NC(=O)c1[nH]cnc1C(=O)Nc1ccc(NC(=O)c2ccccc2Cl)cc1 [Example 171, N^4-{4-[(2-chlorobenzoyl)amino]phenyl}-N^5-[2-methyl-1-(piperidin-1-yl)propan-2-yl]-1H-imidazole-4,5-dicarboxamide] | 5.19 |
|  | CCNC(=O)c1nc[nH]c1C(=O)Nc1ccc(NC(=O)c2ccc(OCC)cc2Cl)cc1 [Example 259, N^5-{4-[(2-chloro-4-ethoxybenzoyl)amino]phenyl}-N^4-ethyl-1H-imidazole-4,5-dicarboxamide] | 4.48 |
| 6.82 | COCCNC(=O)c1[nH]cnc1C(=O)Nc1ccc(NC(=O)c2ccc(F)cc2Cl)cc1 [Example 130, N^4-{4-[(2-chloro-4-fluorobenzoyl)amino]phenyl}-N^5-(2-methoxyethyl)-1H-imidazole-4,5-dicarboxamide] |  |
|  | CC(C)(C)CNC(=O)c1[nH]cnc1C(=O)Nc1ccc(NC(=O)c2ccccc2Cl)cc1 [Example 148, N^4-{4-[(2-chlorobenzoyl)amino]phenyl}-N^5-(2,2-dimethylpropyl)-1H-imidazole-4,5-dicarboxamide] | 4.80 |
| < 6.30 | CNC(=O)c1nc[nH]c1C(=O)Nc1ccc(NC(=O)c2c(F)cc(F)cc2Cl)cc1 [Example 118, N^5-{4-[(2-chloro-4,6-difluorobenzoyl)amino]phenyl}-N^4-methyl-1H-imidazole-4,5-dicarboxamide] |  |
|  | CNC(=O)c1nc[nH]c1C(=O)Nc1ccc(NC(=O)c2ncccc2Cl)cc1 [Example 247, N^5-(4-{[(3-chloropyridin-2-yl)carbonyl]amino}phenyl)-N^4-methyl-1H-imidazole-4,5-dicarboxamide] | 4.46 |
| 6.37 | O=C(Nc1ccc(NC(=O)c2nc[nH]c2C(=O)NC2CCOC2)cc1)c1ccc(F)cc1Cl (centres unmarked) [Example 236, N^4-{4-[(2-chloro-4-fluorobenzoyl)amino]phenyl}-N^5-(tetrahydrofuran-3-yl)-1H-imidazole-4,5-dicarboxamide] | 4.47 |
|  | CN1CCN(C(C)(C)CNC(=O)c2[nH]cnc2C(=O)Nc2ccc(NC(=O)c3ccc(F)cc3Cl)cc2)CC1 [Example 187, N^4-{4-[(2-chloro-4-fluorobenzoyl)amino]phenyl}-N^5-[2-methyl-2-(4-methylpiperazin-1-yl)propyl]-1H-imidazole-4,5-dicarboxamide] | 4.55 |
|  | O=C(Nc1ccc(NC(=O)c2nc[nH]c2C(=O)NCCCN2CCOCC2)cc1)c1ccccc1Cl [Example 200, N^4-{4-[(2-chlorobenzoyl)amino]phenyl}-N^5-[3-(morpholin-4-yl)propyl]-1H-imidazole-4,5-dicarboxamide] | 4.70 |
| 8.70 | CC1CCN(CCNC(=O)c2nc[nH]c2C(=O)Nc2ccc(NC(=O)c3ccc(F)cc3Cl)cc2)CC1 [Example 126, N^5-{4-[(2-chloro-4-fluorobenzoyl)amino]phenyl}-N^4-[2-(4-methylpiperidin-1-yl)ethyl]-1H-imidazole-4,5-dicarboxamide] | 4.57 |
